# Data from US20260191962A1, “NOVEL CHLORIN E6 ANALOGUES” (RMW CHO Group Limited, priority 2022, published 2026).
# Counter-ions that a name gives are not always drawn. Like-named read-outs stand apart in the source and are kept apart here.
# What was measured:
# [1] = Stability of chlorin e6 analogue salts in aqueous solution (HPLC purity over time); type: physicochemical; settings: 30° C.; for Stability: aqueous solution, overall rating in words
# Protocol: Reaction solutions were prepared by dissolving 2-3 mg of the respective chlorin e6 analogue salt in 5 mL of distilled deionised water in a 50 mL test tube fitted with a lid. The solutions were stirred in the test tubes at 30° C. Air (oxygen) and ambient light so were not excluded. Sample HPLC analyses were performed at 0.5, 4 or 66 hours (unless indicated otherwise). The aim was to look for degradation over time.
# • Mobile Phase: A=0.05% w/v phosphoric acid in distilled water; B=acetonitrile • Injection volume: 5 μL • HPLC run length: 35 minutes • Detection wavelength: 406 nm • Column temperature: 40° C.
# [2] = system: SKOV3 ovarian cancer cells; experiment: Phototoxicity of chlorin e6 analogues in SKOV3 cells after 652 nm laser activation (AlamarBlue viability); type: cell-based, Human; settings: for IC90: 24 h uptake, 652 nm laser 50 mW/cm^2 for 5 mins (15 J/cm^2), viability 24 h later; for Phototoxicity in vitro compared with compounds 1, 2 and 8: comparison in words
# Protocol: Samples were stored at 4° C. protected from light.
# All data are shown as mean±SD (where appropriate).
# To test for phototoxicity, cells incubated with chlorin e6 analogues (0-10 μM in DMSO) had culture media replaced after 24 hours (as above) and were then exposed to a 652 nm laser (Invion) with laser density at 50 mW/cm^2 for 5 mins (total 15 J/cm^2). Following activation, cells were cultured for a further 24 hours. Media was then replaced with fresh media containing AlamarBlue, and % viable cells remaining assessed as above. Controls included cells treated with chlorin e6 analogues but not activated by laser light; cells without chlorin e6 analogue treatment but with laser light; and untreated controls. All measurements were made in quadruplicate.
# To evaluate the therapeutic potential of chlorin e6 analogues, the therapeutic index (TI) was calculated. TI provides a quantitative measurement to describe relative drug safety, by comparing the drug concentration required for desirable effects versus the concentration resulting in undesirable off-target toxicity. TI was calculated using phototoxicity IC90 vs dark toxicity IC10.
# [3] = system: SKOV3 ovarian cancer cells; settings: human, 24 h
# Protocol: (§1) Photosensitizers (e.g. chlorin e6 analogue, chlorin e4 disodium (provided by Advanced Molecular Technologies, Scoresby) or Talaporfin sodium (purchased from Focus Bioscience cat #HY-16477-5MG)) were resuspended in 100% dimethylsulfoxide (DMSO) at a concentration of 5.5 mM. Samples were stored at 4° C. protected from light.
# (§2) For in vitro experiments, photosensitizers (stock solution 5.5 mM in 100% DMSO) were diluted 1:100 in concentrated excipient solution (final 55 M photosensitizer in 10% w/v Kollidon-12, 42.4% w/v polysorbate 80, 0.6% w/v citric acid anhydrous, 40% w/v ethanol, 1.0% DMSO). Serial dilutions were prepared in cell culture media (Dulbecco's Modified Eagle Medium/Nutrient Mixture F-12 (DMEM/F-12)) supplemented with 10% v/v Fetal Bovine Serum, 100 U/mL penicillin, 100 μg/mL streptomycin and the same excipient solution at a constant 1:55 dilution.
# (§3) Human ovarian cancer cell line SKOV3 (ATCC #HTB-77) was maintained in Dulbecco's Modified Eagle Medium/Nutrient Mixture F-12 (DMEM/F-12), supplemented with 10% v/v Fetal Bovine Serum, 100 U/mL penicillin and 100 g/mL streptomycin. Monolayer cultures were grown in a humidified incubator at 37° C. with 5% CO2. Once cells had reached ~80% confluence, spent media was replaced with media containing photosensitizer at the required concentration and cells were incubated for the desired period of time to allow photosensitizer uptake.
# (§4) Spectral absorbance and viability measurements were normalized in the range 0-100%, with a minimum of 0 and a maximum value determined from the dataset. Dose response was determined using a sigmoidal four-point non-linear regression with variable slope, and IC10 or IC90 calculated for each compound. All data are shown as mean±SD (where appropriate).
# (§5) SKOV3 cells were seeded in 96-well black wall plates (Greiner #655090) at a cell density of 5000 cells in 100 μl culture medium per well. On reaching 60% confluence, media was aspirated and replaced with fresh media containing the relevant chlorin e6 analogue from 0-100 μM in DMSO. Cells were incubated for a further 24 hours, allowing uptake of chlorin e6 analogues.
# (§6) To test for inherent cytotoxicity (i.e. “dark toxicity”) of the chlorin e6 analogues, the culture media was replaced after 24 hours with fresh media containing 10% (v/v) AlamarBlue Cell Viability Reagent (ThermoFisher) and cells incubated at 37° C. for 6 hours. Untreated cells were used as a control. Fluorescence (Ex 555 nm/Em 596 nm) was measured using a Cytation 3 Cell Imaging Multi-Mode Reader (Biotek), and cytotoxicity assessed according to the % viable cells remaining. All measurements were made in quadruplicate.
# (§7) The phototoxicity and inherent cytotoxicity (i.e. “dark toxicity”) of chlorin e6 analogues were assessed as previously using SKOV3 ovarian cancer cells.
# [4] = system: SKOV3 ovarian cancer cells; experiment: Inherent cytotoxicity (dark toxicity) in SKOV3 cells (AlamarBlue viability); settings: 24 h incubation, no light activation
# Protocol: as §1, §2, §3, §4, §5, §6, §7
# [5] = distilled deionised water, air and ambient light not excluded, Disodium Salt
# [6] = distilled deionised water, air and ambient light not excluded
# [7] = Homo sapiens, SK-OV-3, light or radiation study
Stability [1],"Purity by HPLC after 0.5 hours (%) [1, 6] [%]","Purity by HPLC after 4 hours (%) [1, 6] [%]","Purity by HPLC after 66 hours (%) [1, 6] [%]",Compound,also measured
Poor,–,–,–,"C=Cc1c(C)c2cc3nc(c(CC(=O)O)c4[nH]c(cc5nc(cc1[nH]2)C(C)=C5CC)c(C)c4C(=O)OC)[C@@H](CCC(=O)O)[C@@H]3C [Compound 13, Chlorin e6 5-methyl Ester Disodium Salt]","Purity by HPLC after 0.5 hours (%) [1, 5]: 85.46%; Purity by HPLC after 4 hours (%) [1, 5]: 81.54%; Purity by HPLC after 66 hours (%) [1, 5]: 41.60%"
Good,94.15,93.94,–,"C=Cc1c(C)c2cc3nc(c(CC(=O)N(C)CCCC)c4[nH]c(cc5nc(cc1[nH]2)C(C)=C5CC)c(C)c4C(=O)O)[C@@H](CCC(=O)O)[C@@H]3C [Compound 11, Chlorin e6 N-methylbutylamine bis(N-methyl-D-glucamine) Salt]","Purity by HPLC (%) after 7 days ([1]; distilled deionised water, air and ambient light not excluded, after 7 days): 93.93 (after %"
–,–,–,–,"C=Cc1c(C)c2cc3nc(c(CC(=O)O)c4[nH]c(cc5nc(cc1[nH]2)C(C)=C5CC)c(C)c4C(=O)NCCCS[C@@H]1O[C@H](CO)[C@@H](O)[C@H](O)[C@H]1O)[C@@H](CCC(=O)NCCCS[C@@H]1O[C@H](CO)[C@@H](O)[C@H](O)[C@H]1O)[C@@H]3C [Compound 1, chlorin e6 bis β-D-1-thioglucose propylamide conjugate 1]","IC90 [2, 7]: 6.48 µM; Dark toxicity μM (IC10) [3]: 168.10 µM"
Poor,88.56,84.33,40.27,"C=Cc1c(C)c2cc3nc(c(CC(=O)O)c4[nH]c(cc5nc(cc1[nH]2)C(C)=C5CC)c(C)c4C(=O)O)[C@@H](CCC(=O)O)[C@@H]3C [Photodithiazine, reference compound]",–
–,–,–,–,"C=Cc1c(C)c2cc3nc(c(CC(=O)OCC)c4[nH]c(cc5nc(cc1[nH]2)C(C)=C5CC)c(C)c4C(=O)O)[C@@H](CCC(=O)O)[C@@H]3C [Compound 17, Chlorin e6 15-ethyl Ester Disodium Salt]","Purity by HPLC after 66 hours (%) [1, 5]: 76.69%; Purity by HPLC (%) after 2 hours ([1]; distilled deionised water, air and ambient light not excluded, after 2 hours): 77.60 (after %"
Poor,81.39,81.28,1.62,"C=Cc1c(C)c2cc3nc(c(CC(=O)O)c4[nH]c(cc5nc(cc1[nH]2)C(C)=C5CC)c(C)c4C(=O)OC)[C@@H](CCC(=O)O)[C@@H]3C [Compound 20, Chlorin e6 5-methyl Ester bis(N-methyl-D-glucamine) Salt]",–
Good,–,–,95.34,"C=Cc1c(C)c2cc3nc(c(CC(=O)OCC)c4[nH]c(cc5nc(cc1[nH]2)C(C)=C5CC)c(C)c4C(=O)O)[C@@H](CCC(=O)O)[C@@H]3C [Compound 16, Chlorin e6 15-ethyl Ester bis(N-methyl-D-glucamine) Salt]",–
–,–,–,–,"C=Cc1c(C)c2cc3nc(c(CC(=O)N(C)CCC[P+](c4ccccc4)(c4ccccc4)c4ccccc4)c4[nH]c(cc5nc(cc1[nH]2)C(C)=C5CC)c(C)c4C(=O)OC)[C@@H](CCC(=O)OC)[C@@H]3C [Compound 8, Chlorin e6 N-(methylaminopropyl)triphenylphosphonium Bromide Dimethyl Ester]","IC90 [2, 7]: 0.00418 µM; Dark toxicity μM (IC10) [3]: 1.032 µM"
–,–,–,–,"C=Cc1c(C)c2cc3nc(c(C)c4[nH]c(cc5nc(cc1[nH]2)C(C)=C5CC)c(C)c4C(=O)O)[C@@H](CCC(=O)O)[C@@H]3C [Chlorin e4 disodium, reference compound]","IC90 [2]: 21.3 µM; Phototoxicity in vitro compared with compounds 1, 2 and 8 [2]: substantially lower phototoxicity; Dark toxicity μM (IC10) [4]: 40.23 µM"
–,–,–,–,"C=Cc1c(C)c2cc3nc(c(CC(=O)N[C@@H](CC(=O)O)C(=O)O)c4[nH]c(cc5nc(cc1[nH]2)C(C)=C5CC)c(C)c4C(=O)O)[C@@H](CCC(=O)O)[C@@H]3C [Talaporfin sodium, reference compound]","Phototoxicity in vitro compared with compounds 1, 2 and 8 [2]: substantially lower phototoxicity; Dark toxicity μM (IC10) [4]: 11.10 µM"
–,–,–,–,"C=Cc1c(C)c2cc3nc(c(CC(=O)NCCCS[C@@H]4O[C@H](CO)[C@@H](O)[C@H](O)[C@H]4O)c4[nH]c(cc5nc(cc1[nH]2)C(C)=C5CC)c(C)c4C(=O)NCCCS[C@@H]1O[C@H](CO)[C@@H](O)[C@H](O)[C@H]1O)[C@@H](CCC(=O)NCCCS[C@@H]1O[C@H](CO)[C@@H](O)[C@H](O)[C@H]1O)[C@@H]3C [Compound 2, chlorin e6 tris β-D-1-thioglucose propylamide conjugate 2]","IC90 [2, 7]: 7.89 µM; Dark toxicity μM (IC10) [3]: 167.50 µM"
Poor,83.73,81.10,36.95,"C=Cc1c(C)c2cc3nc(c(CC(=O)O)c4[nH]c(cc5nc(cc1[nH]2)C(C)=C5CC)c(C)c4C(=O)OC)[C@@H](CCC(=O)O)[C@@H]3C [Compound 12, Chlorin e6 5-methyl Ester Monosodium Mono(N-methyl-D-glucamine) Salt]",–
